Test results: publication PMC9007951, “Systematically evaluating DOTATATE and FDG as PET immuno-imaging tracers of cardiovascular inflammation” (Scientific Reports, 2022)
Like-named read-outs stand apart in the source and are kept apart here.

Assay: Organ biodistribution of [^68Ga]Ga-DOTATATE by ex vivo gamma counting
Type: in vivo, New Zealand White rabbits
Settings: male, New Zealand White, rabbit, 190 MBq, total radioactivity, 200 min after tracer injection, median (IQR)
Experimental: Adopting a translational approach, the rabbit studies were performed with the [^68Ga]Ga-labeled tracer, which is already being used in the clinic. [^68Ga]Ga-DOTATATE was purchased from Advanced Accelerator Applications (AAA, Millburn, NJ, USA). To determine its pharmacokinetics, three atherosclerotic rabbits and two healthy controls were injected with approximately 190 MBq of [^68Ga]Ga-DOTATATE. Venous blood was sampled at 1, 5, 10, 15, 20, 30, 60, 120, 180, 240 and 300 min after injection through the ear vein. Samples were weighed and gamma counted. Blood half-life data were fitted using a two-phase decay non-linear regression using GraphPad Prism v8.4.3 (Supplementary Table S1). To investigate the tracer blood distribution, blood samples were centrifuged at 2000 g for 15 min at 4 °C to determine the radioactivity concentration in the plasma and cellular fractions. To analyze [^68Ga]Ga-DOTATATE biodistribution, all rabbits were euthanized after the last imaging time-point using an injection of pentobarbital 100 mg/kg and exsanguination of the portal vein. Rabbits were extensively perfused with 1000 mL of saline. Following, tissues (blood, heart, aorta, liver, kidney, skeletal muscle, small and large intestine, fat, stomach, pancreas and bladder) were harvested, weighed and gamma counted.

tissue uptake at 200 min (abdominal aorta, iv, male athero4mo rabbits, N = 9, read-out: Tissue radioactivity, abdominal aorta): 0.017 %ID/g | tissue uptake at 200 min (abdominal aorta, iv, male control rabbits, N = 6, read-out: Tissue radioactivity, abdominal aorta): 0.006 %ID/g | tissue uptake at 200 min (adrenal gland, iv, male athero4mo rabbits, N = 9, read-out: Tissue radioactivity, adrenal gland): 0.012 %ID/g | tissue uptake at 200 min (adrenal gland, iv, male control rabbits, N = 6, read-out: Tissue radioactivity, adrenal gland): 0.003 %ID/g | tissue uptake at 200 min (bladder, intravenous, male athero4mo rabbits, N = 9, read-out: Tissue radioactivity, bladder): 0.075 %ID/g | tissue uptake at 200 min (bladder, intravenous, male control rabbits, N = 6, read-out: Tissue radioactivity, bladder): 0.053 %ID/g | tissue uptake at 200 min (bone marrow, intravenous, male athero4mo rabbits, N = 9, read-out: Tissue radioactivity, bone marrow): 0.006 %ID/g | tissue uptake at 200 min (bone marrow, intravenous, male control rabbits, N = 6, read-out: Tissue radioactivity, bone marrow): 0.003 %ID/g | tissue uptake at 200 min (fat, intravenous, male athero4mo rabbits, N = 9, read-out: Tissue radioactivity, fat): 0.002 %ID/g | tissue uptake at 200 min (heart, iv, male athero4mo rabbits, N = 9, read-out: Tissue radioactivity, heart): 0.006 %ID/g | tissue uptake at 200 min (heart, iv, male control rabbits, N = 6, read-out: Tissue radioactivity, heart): 0.003 %ID/g | tissue uptake at 200 min (kidneys, iv, male athero4mo rabbits, N = 9, read-out: Tissue radioactivity, kidneys): 0.157 %ID/g | tissue uptake at 200 min (kidneys, iv, male control rabbits, N = 6, read-out: Tissue radioactivity, kidneys): 0.128 %ID/g | tissue uptake at 200 min (large intestine, iv, male athero4mo rabbits, N = 9, read-out: Tissue radioactivity, large intestine): 0.01 %ID/g | tissue uptake at 200 min (large intestine, iv, male control rabbits, N = 6, read-out: Tissue radioactivity, large intestine): 0.005 %ID/g | tissue uptake at 200 min (liver, intravenous, male athero4mo rabbits, N = 9, read-out: Tissue radioactivity, liver): 0.006 %ID/g | tissue uptake at 200 min (lungs, iv, male athero4mo rabbits, N = 9, read-out: Tissue radioactivity, lungs): 0.015 %ID/g | tissue uptake at 200 min (lungs, iv, male control rabbits, N = 6, read-out: Tissue radioactivity, lungs): 0.005 %ID/g | tissue uptake at 200 min (lymph node, iv, male athero4mo rabbits, N = 9, read-out: Tissue radioactivity, lymph node): 0.013 %ID/g | tissue uptake at 200 min (lymph node, iv, male control rabbits, N = 6, read-out: Tissue radioactivity, lymph node): 0.005 %ID/g | tissue uptake at 200 min (muscle, iv, male athero4mo rabbits, N = 9, read-out: Tissue radioactivity, muscle): 0.003 %ID/g | tissue uptake at 200 min (muscle, iv, male control rabbits, N = 6, read-out: Tissue radioactivity, muscle): 0.001 %ID/g | tissue uptake at 200 min (pancreas, intravenous, male control rabbits, N = 6, read-out: Tissue radioactivity, pancreas): 0.005 %ID/g | tissue uptake at 200 min (small intestine, iv, male athero4mo rabbits, N = 9, read-out: Tissue radioactivity, small intestine): 0.021 %ID/g | tissue uptake at 200 min (small intestine, iv, male control rabbits, N = 6, read-out: Tissue radioactivity, small intestine): 0.025 %ID/g | tissue uptake at 200 min (spleen, intravenous, male athero4mo rabbits, N = 9, read-out: Tissue radioactivity, spleen): 0.012 %ID/g | tissue uptake at 200 min (spleen, intravenous, male control rabbits, N = 6, read-out: Tissue radioactivity, spleen): 0.015 %ID/g | tissue uptake at 200 min (stomach, intravenous, male athero4mo rabbits, N = 9, read-out: Tissue radioactivity, stomach): 0.053 %ID/g | tissue uptake at 200 min (thoracic aorta, iv, male athero4mo rabbits, N = 9, read-out: Tissue radioactivity, thoracic aorta): 0.015 %ID/g | tissue uptake at 200 min (thoracic aorta, iv, male control rabbits, N = 6, read-out: Tissue radioactivity, thoracic aorta): 0.004 %ID/g
SMILES: C[C@@H](O)[C@H](NC(=O)[C@@H]1CSSC[C@H](NC(=O)[C@@H](Cc2ccccc2)NC(=O)CN2CCN(CC(=O)O)CCN(CC(=O)O)CCN(CC(=O)O)CC2)C(=O)N[C@@H](Cc2ccc(O)cc2)C(=O)N[C@H](Cc2c[nH]c3ccccc23)C(=O)N[C@@H](CCCCN)C(=O)N[C@@H]([C@@H](C)O)C(=O)N1)C(=O)O [[^68Ga]Ga-DOTATATE, metal not drawn]
